The results in this text go back to patent US9884063B2, “Amido-substituted azole compounds” (Bayer Pharma Aktiengesellschaft, priority 2014, dated 2018).

The target of one experiment is T1, TNKS2 (Homo sapiens, UniProt Q9H2K2).
T1 sequence (Q9H2K2 1-1166): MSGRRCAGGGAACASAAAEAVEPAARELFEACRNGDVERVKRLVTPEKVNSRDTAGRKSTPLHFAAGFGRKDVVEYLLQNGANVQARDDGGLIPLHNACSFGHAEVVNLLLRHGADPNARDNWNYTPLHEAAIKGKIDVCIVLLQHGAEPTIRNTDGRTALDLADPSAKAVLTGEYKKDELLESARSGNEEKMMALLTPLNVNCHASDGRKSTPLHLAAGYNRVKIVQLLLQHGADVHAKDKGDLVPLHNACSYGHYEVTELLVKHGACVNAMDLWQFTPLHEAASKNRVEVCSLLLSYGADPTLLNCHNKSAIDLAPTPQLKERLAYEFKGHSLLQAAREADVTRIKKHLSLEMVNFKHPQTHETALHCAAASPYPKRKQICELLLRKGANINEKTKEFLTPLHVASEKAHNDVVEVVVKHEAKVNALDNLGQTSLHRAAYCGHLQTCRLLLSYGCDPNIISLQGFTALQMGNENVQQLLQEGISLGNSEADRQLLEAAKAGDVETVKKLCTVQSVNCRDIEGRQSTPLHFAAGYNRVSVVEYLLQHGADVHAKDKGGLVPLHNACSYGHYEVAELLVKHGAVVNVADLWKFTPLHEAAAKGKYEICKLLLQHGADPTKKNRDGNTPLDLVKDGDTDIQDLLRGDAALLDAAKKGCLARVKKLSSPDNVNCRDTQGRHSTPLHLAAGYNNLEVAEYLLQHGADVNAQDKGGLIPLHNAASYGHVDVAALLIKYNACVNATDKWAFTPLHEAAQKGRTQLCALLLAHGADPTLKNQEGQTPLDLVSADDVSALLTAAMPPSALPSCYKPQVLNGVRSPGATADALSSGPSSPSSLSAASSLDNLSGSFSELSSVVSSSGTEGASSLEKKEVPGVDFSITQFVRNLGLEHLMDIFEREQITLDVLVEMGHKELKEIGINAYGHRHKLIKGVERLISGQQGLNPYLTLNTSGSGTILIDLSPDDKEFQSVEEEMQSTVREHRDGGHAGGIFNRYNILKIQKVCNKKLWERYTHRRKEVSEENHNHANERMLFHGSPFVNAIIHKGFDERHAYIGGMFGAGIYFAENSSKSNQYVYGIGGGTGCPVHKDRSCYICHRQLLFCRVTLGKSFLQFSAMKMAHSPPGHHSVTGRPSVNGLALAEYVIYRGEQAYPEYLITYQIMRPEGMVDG
As to the kind of experiment: Modified TNKS2 Assay 2 (auto-parsylation, [3H]-NAD+ SPA). The following applies: 6 nM TNKS2, 96 well. Type of experiment: biochemical.

Experiment [1] relates to HEK293 FOP control reporter cell line. The experiment is described as follows: HEK293 FOP Assay (FOP control vector luciferase reporter). Type of experiment: cell-based. The note with it: Homo sapiens; HEK293 FOP control reporter cell line, 16 hours incubation, compound dilution series 50 μM to 15 nM. A digest of the protocol:
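Stable HEK293 line carrying the FOP vector (randomized, non-functional TCF sites; Geneticin-selected) was run in parallel with the TOP line. Cells were plated 24 h ahead at 10000/well and given recombinant human Wnt-3a at 2500–5 ng/ml. Compounds were tested at 50 μM–15 nM (3.16-fold steps) in CAFTY buffer, pH 7.4, with 2 mM Ca2+ and 0.01% BSA.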
(A reporter such as luciferase makes a cellular process visible.)

As for `C[C@@H]1CCCCN1CCNC(=O)c1[nH]cnc1C(=O)Nc1ccc(NC(=O)c2ccc(F)cc2Cl)cc1` [Example 267, N^4-{4-[(2-chloro-4-fluorobenzoyl)amino]phenyl}-N^5-{2-[(2R)-2-methylpiperidin-1-yl]ethyl}-1H-imidazole-4,5-dicarboxamide], the IC50 (in general, the midpoint of a concentration-inhibition curve) at TNKS2 turned out to be 3 nM; in experiment [1], 20000 nM. For `C[C@@H]1CCCN(CCNC(=O)c2[nH]cnc2C(=O)Nc2ccc(NC(=O)c3ccc(F)cc3Cl)cc2)C1` [Example 278, N^4-{4-[(2-chloro-4-fluorobenzoyl)amino]phenyl}-N^5-{2-[(3R)-3-methylpiperidin-1-yl]ethyl}-1H-imidazole-4,5-dicarboxamide] the same measures were 5 nM and 25000 nM. In the case of `O=C(Nc1ccc(NC(=O)c2nc[nH]c2C(=O)N[C@H]2CCNC2)cc1)c1ccc(F)cc1Cl` [Example 281, N^4-{4-[(2-chloro-4-fluorobenzoyl)amino]phenyl}-N^5-[(3S)-pyrrolidin-3-yl]-1H-imidazole-4,5-dicarboxamide], the IC50 on TNKS2 is 70 nM. On the same count and under the same terms, in the case of `O=C(Nc1ccc(NC(=O)c2[nH]cnc2C(=O)N2CC3(COC3)C2)cc1)c1cc(F)c(F)cc1Cl` [Example 52, N-{4-[(2-chloro-4,5-difluorobenzoyl)amino]phenyl}-4-(2-oxa-6-azaspiro[3.3]hept-6-ylcarbonyl)-1H-imidazole-5-carboxamide] it was 220 nM. The molecule `CNC(=O)c1nc[nH]c1C(=O)Nc1ccc(NC(=O)c2ccc(F)c(Cl)c2)cc1` [Example 340, N^5-{4-[(3-chloro-4-fluorobenzoyl)amino]phenyl}-N^4-methyl-1H-imidazole-4,5-dicarboxamide] yielded a half-maximal inhibitory concentration (IC50) against TNKS2 of more than 10000 nM. Consider `CNC(=O)c1nc[nH]c1C(=O)Nc1ccc(NC(=O)c2cc(C(F)(F)F)ccc2Cl)cc1` [Example 352, N^5-(4-{[2-chloro-5-(trifluoromethyl)benzoyl]amino}phenyl)-N^4-methyl-1H-imidazole-4,5-dicarboxamide], for which, on TNKS2, the midpoint of inhibition, the IC50, lay at 1300 nM.

At TNKS2, `O=C(Nc1ccc(NC(=O)c2nc[nH]c2C(=O)NCC2CCOCC2)cc1)c1ccc(F)cc1Cl` [Example 397, N^5-{4-[(2-chloro-4-fluorobenzoyl)amino]phenyl}-N^4-(tetrahydro-2H-pyran-4-ylmethyl)-1H-imidazole-4,5-dicarboxamide] displayed an IC50 of 200 nM.

At TNKS2, `CNC(=O)c1nc[nH]c1C(=O)Nc1ccc(NC(=O)c2cc(F)c(F)cc2C)cc1` [Example 377, N^5-{4-[(4,5-difluoro-2-methylbenzoyl)amino]phenyl}-N^4-methyl-1H-imidazole-4,5-dicarboxamide] showed an IC50 of 330 nM. As for `CC(CN1CCOCC1)NC(=O)c1[nH]cnc1C(=O)Nc1ccc(NC(=O)c2ccc(F)cc2)cc1` (stereo not drawn) [Example 294, N^4-{4-[(4-fluorobenzoyl)amino]phenyl}-N^5-[1-(morpholin-4-yl)propan-2-yl]-1H-imidazole-4,5-dicarboxamide], inhibition against TNKS2 was half-maximal at 150 nM (IC50). In the case of `CNC(=O)c1nc[nH]c1C(=O)Nc1ccc(NC(=O)c2ccc(C#N)cc2)cc1` [Example 322, N^5-{4-[(4-cyanobenzoyl)amino]phenyl}-N^4-methyl-1H-imidazole-4,5-dicarboxamide], on TNKS2, it took 950 nM to reach half-maximal inhibition (IC50). Regarding `CCN(CC)CCCCNC(=O)c1nc[nH]c1C(=O)Nc1ccc(NC(=O)c2ccc(F)cc2Cl)cc1` [Example 393, N^5-{4-[(2-chloro-4-fluorobenzoyl)amino]phenyl}-N^4-[4-(diethylamino)butyl]-1H-imidazole-4,5-dicarboxamide], the IC50 on TNKS2 worked out at 750 nM.

On TNKS2, `O=C(Nc1ccc(NC(=O)c2nc[nH]c2C(=O)NCCN2CCCCC2)cc1)c1ccccc1Cl` [Example 381, N^4-{4-[(2-chlorobenzoyl)amino]phenyl}-N^5-[2-(piperidin-1-yl)ethyl]-1H-imidazole-4,5-dicarboxamide] came in with an IC50 of 20 nM. Regarding `O=C(Nc1ccc(NC(=O)c2[nH]cnc2C(=O)NC2CC2)cc1)c1cc(F)c(F)cc1Cl` [Example 51, N^5-{4-[(2-chloro-4,5-difluorobenzoyl)amino]phenyl}-N^4-cyclopropyl-1H-imidazole-4,5-dicarboxamide], the IC50 at TNKS2 is 50 nM. Take `CNC(=O)c1nc[nH]c1C(=O)Nc1ccc(NC(=O)c2c(C)cccc2Cl)cc1` [Example 343, N^5-{4-[(2-chloro-6-methylbenzoyl)amino]phenyl}-N^4-methyl-1H-imidazole-4,5-dicarboxamide]: on TNKS2, the IC50 was 1700 nM.

`CNC(=O)c1nc[nH]c1C(=O)Nc1ccc(NC(=O)c2cc(C)ccn2)cc1` [Example 363, N^4-methyl-N^5-(4-{[(4-methylpyridin-2-yl)carbonyl]amino}phenyl)-1H-imidazole-4,5-dicarboxamide] returned an IC50 against TNKS2 of more than 10000 nM.

Molecule `O=C(Nc1ccc(NC(=O)c2[nH]cnc2C(=O)NCCc2ccccc2)cc1)c1ccc(F)cc1Cl` [Example 384, N^5-{4-[(2-chloro-4-fluorobenzoyl)amino]phenyl}-N^4-(2-phenylethyl)-1H-imidazole-4,5-dicarboxamide] registered an IC50 at TNKS2 of 1700 nM. With `O=C(Nc1ccc(NC(=O)c2[nH]cnc2C(=O)NCCc2cccnc2)cc1)c1ccc(F)cc1Cl` [Example 405, N^5-{4-[(2-chloro-4-fluorobenzoyl)amino]phenyl}-N^4-[2-(pyridin-3-yl)ethyl]-1H-imidazole-4,5-dicarboxamide], on TNKS2, the IC50 was 100 nM. The molecule `CNC(=O)c1nc[nH]c1C(=O)Nc1ccc(NC(=O)c2cc(F)ccc2OC)cc1` [Example 364, N^5-{4-[(5-fluoro-2-methoxybenzoyl)amino]phenyl}-N^4-methyl-1H-imidazole-4,5-dicarboxamide] showed an IC50 against TNKS2 of 7900 nM. Regarding `O=C(Nc1ccc(NC(=O)c2[nH]cnc2C(=O)NCCN2CCCCC2)cc1F)c1ccc(F)cc1` [Example 78, N^5-{3-fluoro-4-[(4-fluorobenzoyl)amino]phenyl}-N^4-[2-(piperidin-1-yl)ethyl]-1H-imidazole-4,5-dicarboxamide], the IC50 on TNKS2 is more than 10000 nM. Still for that read-out and setting: with `CNC(=O)c1nc[nH]c1C(=O)Nc1ccc(NC(=O)c2ccc(F)cc2I)cc1` [Example 61, N^5-{4-[(4-fluoro-2-iodobenzoyl)amino]phenyl}-N^4-methyl-1H-imidazole-4,5-dicarboxamide] the figure was 60 nM. At TNKS2, `CS(=O)(=O)c1ccc(C(=O)Nc2ccc(NC(=O)c3[nH]cnc3C(=O)NCCN3CCCCC3)cc2)c(Cl)c1` [Example 53, N^5-(4-{[2-chloro-4-(methylsulfonyl)benzoyl]amino}phenyl)-N^4-[2-(piperidin-1-yl)ethyl]-1H-imidazole-4,5-dicarboxamide] came in with an IC50 of 10 nM. Still for that read-out and setting: with `O=C(Nc1ccc(NC(=O)c2nc[nH]c2C(=O)NCCN2CCCCC2)cc1OC(F)(F)F)c1ccc(F)cc1Cl` [Example 293, N^4-{4-[(2-chloro-4-fluorobenzoyl)amino]-3-(trifluoromethoxy)phenyl}-N^5-[2-(piperidin-1-yl)ethyl]-1H-imidazole-4,5-dicarboxamide] the figure was 110 nM; with `CNC(=O)c1nc[nH]c1C(=O)Nc1ccc(NC(=O)c2cncc(C)c2)cc1` [Example 366, N^4-methyl-N^5-(4-{[(5-methylpyridin-3-yl)carbonyl]amino}phenyl)-1H-imidazole-4,5-dicarboxamide], more than 10000 nM; with `CC(CN1CCOCC1)NC(=O)c1[nH]cnc1C(=O)Nc1ccc(NC(=O)c2ccc(F)cc2Cl)cc1` (single isomer, unassigned; enantiomer 2) [Example 270, N^4-{4-[(2-chloro-4-fluorobenzoyl)amino]phenyl}-N^5-[1-(morpholin-4-yl)propan-2-yl]-1H-imidazole-4,5-dicarboxamide (enantiomer 2)], 3 nM. At TNKS2, `CNC(=O)c1nc[nH]c1C(=O)Nc1ccc(NC(=O)c2ccon2)cc1` [Example 376, N^4-methyl-N^5-{4-[(1,2-oxazol-3-ylcarbonyl)amino]phenyl}-1H-imidazole-4,5-dicarboxamide] had an IC50 of more than 10000 nM.
